The values below come from patent US20090239877A1, “NOVEL 1,2,4-TRIAZOLE DERIVATIVES AND PROCESS OF MANUFACTURING THEREOF” (AETERNA ZENTARIS GmbH, priority 2008, published 2009).

Assay [1] addresses T1, human GHS-R 1a (Homo sapiens, UniProt Q92847). Put plainly: GHS-R 1a receptor-ligand binding assay (membrane preparations from transfected LLC PK-1 cells). Also noted: expressed in transfected cells. The note with it: displacement of 125I-His9-ghrelin; plasma membranes of LLC PK-1 cells transiently transfected with human GHS-R 1a; mean of at least two independent experiments in triplicates. As to the method: II) GHS-R 1a Receptor-Ligand Binding Assay (Membrane Preparations from Transfected LLC PK-1 Cells)
The GHS-R 1a receptor binding/affinity studies were performed according to Guerlavais et al. (J. Med. Chem. 2003, 46: 1191-1203).
Isolated plasma membranes from LLC PK-1 cells, a renal epithelial cell line originally derived from porcine kidneys (ECACC No. 86121112) (10 μg of protein), that were transiently transfected with human GHS-R 1a cDNA (Guerlavais et al., J. Med. Chem. 2003, 46: 1191-1203), were incubated in homogenization buffer HB [50 mM Tris (pH 7.3), 5 mM MgCl2, 2.5 mM EDTA, and 30 μg/mL bacitracin (Sigma)] for 60 min at 25° C. (steady-state conditions) with […] ^125I-His^9-ghrelin (Amersham) in the presence or absence of competing compounds (compounds of the invention).
Nonspecific binding was defined using an excess (10^−6 M) of ghrelin. The binding reaction was stopped by addition of 4 mL of ice-cold HB followed by rapid filtration over Whatman GP/C filters presoaked with 0.5% polyethyleneimine to prevent excessive binding of radioligand to the filters. Filters were rinsed three times with 3 mL of icecold wash buffer [50 mM Tris (pH 7.3), 10 mM MgCl2, 2.5 mM EDTA, and 0.015% (w/v) X-100 Triton], and the radioactivity bound to membranes was measured in a gammacounter (Kontron Analytical Gamma Matic, Automatic gamma counting system).
The concentration of test compounds required to inhibit radiolabelled ghrelin binding by 50% (IC50) was determined by fitting competitive binding curves using non-linear regression (PRISM 3.0, Graph Pad San Diego, USA).
In the following table 2 results obtained for selected compounds of the invention are presented in comparison to an example of the prior art. IC50 values given are the mean of at least two independent experiments performed in triplicates.
Background: Displacement assays read how much labelled ligand stays bound in the presence of the test substance.

Assay [2] has as its target T1, human GHS-R 1a. Put plainly: In vitro intracellular calcium release assay using human GHS-R 1a transfected CHO cells. Details: expressed in transfected cells; host or cells: CHO-K1 Chinese hamster ovary cells (ATCC No. CCL-61), transient transfection by electroporation. It counts as cell-based. Particulars: for activation at 1 µM: intracellular calcium release, compound at 10^-6 M, relative to basal level (0%) and 1 μM ghrelin (100%); for EC50: agonists, dose-response curve of intracellular calcium release. As to the method:
The ability to properly activate the receptors is assessed for any compound of the invention by comparing the degree of activation (increase of intracellular calcium) of GHS-R 1a by the compound to be tested (at 10^−6 M concentration) to the degree of activation (increase of intracellular calcium) of GHS-R 1a by 10^−6 M ghrelin (100%) and to the basal level (0%). Such assessment can be readily performed by the skilled artisan due to his expert knowledge. The output is a percentage value for each compound to be tested. […]
III) In Vitro Intracellular Calcium Release Assay Using Human GHS-R 1a Transfected CHO Cells
The potential of the compounds of the invention to modulate GHS receptor activity was assessed by an in vitro intracellular Calcium release assay employing CHO cells that were transfected with human GHS-R 1a.
Release of intracellular calcium or inhibition thereof was measured using the fluorescent calcium indicator assay (FLIPR) and Fluo-4 AM.
CHO cells (CHO-KI Chinese Hamster Ovary cell line, ATCC No. CCL-61) were transiently transfected with human GHS-R 1a cDNA by electroporation and plated into 96-well black bottom plates (Corning 3603) (80,000 cells/well). Transient transfections were performed using the Easyject Optima Electroporator (Equibio), according to the manufacturer's instructions.
Transfected cells were grown in Dulbecco's modified Eagle's medium without phenol red, supplemented with 10% (v/v) non-essential amino acids, […] glutamine and streptomycin-penicillin (250 μg/ml-250 u/ml) (all purchased from Cambrex) at 37° C., 5% CO2 in a humidified atmosphere for 24 hours.
After incubation, transfected cells were washed with 150 μl Buffer A [Hanks' balanced salt solution (Sigma H-6648), 0.5% (v/v) BSA (Sigma A-7906), 20 mM CaCl2, 2.5 mM probenecid (pH 7.4, dissolved in 1 M NaOH) (Sigma P-8761)] and were then loaded with fluorescent calcium indicator Fluo-4 AM (10^−6 M) (Interchim UP72972) prepared in Buffer A, additionally containing 0.06% pluronic acid (Molecular probes P-6867) (a […] detergent which facilitates Fluo-4AM ester loading). (Loading: 100 μl per well of Buffer A containing 120 μl/ml Pluronic Acid and 1 μM Fluo-4AM was added to the cells).
After loading with Fluo-4 AM, transfected cells were incubated for 1 hour in the dark at 37° C.
Compounds to be tested were dissolved in Buffer A in triplicates at a concentration of 10^−6 M and distributed into another 96-well plate (Fisher Labosi A1210500).
Following incubation, excess Fluo-4AM was removed, 100 μl of Buffer A was added to each well at room temperature and immediately removed by aspiration. This was then repeated, before adding 50 μl Buffer A to each well.
Transfected cells were further incubated room temperature for 30 min to allow complete de-esterification of intracellular Fluo-4AM esters.
Subsequently, both plates, the black-bottom plate containing transfected cells and the microtiter plate containing the compounds to be tested, were then placed into a temperature-regulated (25° C.) FlexStation machine (benchtop scanning fluorometer Flex Station II, Molecular Devices, Sunnyvale, Calif., USA) for fluorescence output measurements.
Basal fluorescence output from the transfected cells was measured for 15 sec and then 50 μl of the compounds to be tested were automatically distributed into the wells containing the transfected cells. The fluorescence output was then recorded for a further 45 sec.
Excitation and emission wavelengths were 485 nm and 525 nm, respectively. Basal fluorescence intensity of Fluo-4AM-loaded transfected cells without compounds to be tested varied between 800-1200 arbitrary units, whereas maximal fluorescence output of dye-loaded transfected cells upon incubation with the compounds to be tested varied between 5000-7000 arbitrary units and was equivalent to that achieved by stimulation of dye-loaded transfected cells with 10^−6 M ghrelin. […]
(In general: Calcium assays in cells follow changes in intracellular calcium, usually with a dye or a luminescent sensor.)

T1 sequence (Q92847 whole entry): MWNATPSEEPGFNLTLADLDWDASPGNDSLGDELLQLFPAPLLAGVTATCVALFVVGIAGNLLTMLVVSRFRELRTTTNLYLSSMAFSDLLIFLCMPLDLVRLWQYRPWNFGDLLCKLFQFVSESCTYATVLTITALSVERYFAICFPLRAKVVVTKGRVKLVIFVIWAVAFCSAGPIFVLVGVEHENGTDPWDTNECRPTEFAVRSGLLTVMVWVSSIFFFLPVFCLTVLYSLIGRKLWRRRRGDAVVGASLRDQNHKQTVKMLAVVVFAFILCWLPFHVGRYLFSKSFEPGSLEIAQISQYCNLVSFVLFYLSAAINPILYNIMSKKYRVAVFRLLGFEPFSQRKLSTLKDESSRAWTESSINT

Take `COc1cccc(Cn2c(CCCc3ccccc3)nnc2[C@@H](Cc2c[nH]c3ccccc23)NC(=O)C(C)(C)N)c1` [Compound 1, N-((R)-1-(4-(3-methoxybenzyl)-5-(3-phenylpropyl)-4H-1,2,4-triazol-3-yl)-2-(1H-indol-3-yl)ethyl)-2-amino-2-methylpropanamide]: the IC50 (in general, the concentration that gives 50% inhibition) in assay [1] amounted to 380 nM. In addition, in assay [2], the activation at 1 µM stood at 47%.

In assay [1], `COc1ccc(Cn2c(CCc3ccccc3)nnc2[C@@H](Cc2c[nH]c3ccccc23)NC(=O)[C@H]2CNCCN2)cc1` [Compound 2, (2R)-N-((R)-1-(4-(4-methoxybenzyl)-5-phenethyl-4H-1,2,4-triazol-3-yl)-2-(1H-indol-3-yl)ethyl)piperazine-2-carboxamide] showed a concentration for half-maximal inhibition (IC50) of 143 nM. Moreover, in assay [2], the EC50 (in general, the concentration needed to bring the measured effect to its halfway point) is 17 nM and the activation at 1 µM is 40%.

Compound `COc1ccc(Cn2c(CCc3cc4ccccc4[nH]3)nnc2[C@@H](Cc2c[nH]c3ccccc23)NC(=O)C2(N)CCNCC2)cc1` [Compound 3, N-((R)-1-(5-(2-(1H-indol-2-yl)ethyl)-4-(4-methoxybenzyl)-4H-1,2,4-triazol-3-yl)-2-(1H-indol-3-yl)ethyl)-4-aminopiperidine-4-carboxamide] yielded an IC50 in assay [1] of 16 nM. Moreover, in assay [2], the concentration giving a half-maximal response (EC50) came out at 4.4 nM and the activation at 1 µM turned out to be 106%.

`COc1ccc(Cn2c(CCc3ccccc3)nnc2[C@@H](Cc2c[nH]c3ccccc23)NC(=O)C2(N)CCNCC2)cc1` [Compound 4, N-((R)-1-(4-(4-methoxybenzyl)-5-phenethyl-4H-1,2,4-triazol-3-yl)-2-(1H-indol-3-yl)ethyl)-4-aminopiperidine-4-carboxamide] came in with an IC50 in assay [1] of 6.6 nM. Moreover, in assay [2], the EC50 is 4.1 nM and the activation at 1 µM was found to be 90%.

With `COc1ccc(Cn2c(CCc3ccccc3)nnc2[C@@H](Cc2c[nH]c3ccccc23)NC(=O)c2ccccc2)c(OC)c1` [Compound 5, N-((R)-1-(4-(2,4-dimethoxybenzyl)-5-phenethyl-4H-1,2,4-triazol-3-yl)-2-(1H-indol-3-yl)ethyl)benzamide], the IC50 in assay [1] is 11.8 nM. In assay [2], the EC50 turned out to be 16 nM and the activation at 1 µM worked out at 31%.

In assay [1], `COc1ccc(Cn2c(CCc3ccccc3)nnc2[C@@H](Cc2c[nH]c3ccccc23)NC(=O)c2cccc(CN)c2)c(OC)c1` [Compound 6, N-((R)-1-(4-(2,4-dimethoxybenzyl)-5-phenethyl-4H-1,2,4-triazol-3-yl)-2-(1H-indol-3-yl)ethyl)-3-(amino-methyl)benzamide] had an IC50 of 204 nM. Further, the activation at 1 µM in assay [2] stood at 4%.

The compound `COc1ccc(Cn2c(CCc3ccccc3)nnc2[C@@H](Cc2c[nH]c3ccccc23)NC(=O)C2(N)CCNCC2)c(OC)c1` [Compound 10, N-((R)-1-(4-(2,4-dimethoxybenzyl)-5-phenethyl-4H-1,2,4-triazol-3-yl)-2-(1H-indol-3-yl)ethyl)-4-aminopiperidine-4-carboxamide] had an IC50 in assay [1] of 1.3 nM. In assay [2], the EC50 amounted to 2 nM and the activation at 1 µM is 100%.

In assay [1], `COc1ccc(Cn2c(CCc3c[nH]c4ccccc34)nnc2[C@@H](Cc2c[nH]c3ccccc23)NC(=O)c2cccc(CN)c2)cc1` [Compound 13, N-((R)-1-(5-(2-(1H-indol-3-yl)ethyl)-4-(4-methoxybenzyl)-4H-1,2,4-triazol-3-yl)-2-(1H-indol-3-yl)ethyl)-3-(amino-methyl)benzamide] yielded an IC50 of 11.1 nM. In addition, in assay [2], the EC50 came to 2.5 nM and the activation at 1 µM turned out to be 70%.

As for `O=C(N[C@H](Cc1c[nH]c2ccccc12)c1nnc(CCc2ccccc2)n1Cc1cccc2ccccc12)C1CCNCC1` [Compound 15, N-((R)-2-(1H-indol-3-yl)-1-(4-((naphthalen-1-yl)methyl)-5-phenethyl-4H-1,2,4-triazol-3-yl)ethyl)piperidine-4-carboxamide], the IC50 in assay [1] came out at 17 nM. Moreover, in assay [2], the EC50 was found to be 2 nM and the activation at 1 µM is 120%.

`O=C(N[C@H](Cc1c[nH]c2ccccc12)c1nnc(CCc2c[nH]c3ccccc23)n1Cc1cccc2ccccc12)C1CCNCC1` [Compound 17, N-((R)-1-(5-(2-(1H-indol-3-yl)ethyl)-4-((naphthalen-1-yl)methyl)-4H-1,2,4-triazol-3-yl)-2-(1H-indol-3-yl)ethyl)piperidine-4-carboxamide]: the IC50 in assay [1] amounted to 4 nM. For the same compound, in assay [2], the EC50 is 2.4 nM and the activation at 1 µM is 94%.

`O=C(N[C@H](Cc1c[nH]c2ccccc12)c1nnc(CCc2c[nH]c3ccccc23)n1Cc1cccc2ccccc12)c1ccccn1` [Compound 18, N-((R)-1-(5-(2-(1H-indol-3-yl)ethyl)-4-((naphthalen-1-yl)methyl)-4H-1,2,4-triazol-3-yl)-2-(1H-indol-3-yl)ethyl)picolinamide] returned an IC50 in assay [1] of 5.3 nM. Besides, the activation at 1 µM in assay [2] came to 1%.

As to `O=C(N[C@H](Cc1c[nH]c2ccccc12)c1nnc(Cc2ccccc2)n1Cc1ccc(Cl)c(Cl)c1)[C@@H]1CCCN1` [Compound 35, (2S)-N-((R)-1-(4-(3,4-dichlorobenzyl)-5-benzyl-4H-1,2,4-triazol-3-yl)-2-(1H-indol-3-yl)ethyl)pyrrolidine-2-carboxamide], in assay [2], the EC50 was 17 nM and the activation at 1 µM is 60%.

`COc1ccc(Cn2c(CCc3ccccc3)nnc2[C@@H](Cc2cccc3ccccc23)NC(=O)c2ccccn2)cc1` [Compound 79, N-((R)-1-(4-(4-methoxybenzyl)-5-phenethyl-4H-1,2,4-triazol-3-yl)-2-(naphthalen-1-yl)ethyl)picolinamide] gave an IC50 in assay [1] of 1.45 nM.

`COc1ccc(Cn2c(CCc3ccccc3)nnc2[C@@H](Cc2cccc3ccccc23)NC(=O)C2CCCN2)cc1` (stereo partly drawn) [Compound 80, N-((R)-1-(4-(4-methoxybenzyl)-5-phenethyl-4H-1,2,4-triazol-3-yl)-2-(naphthalen-1-yl)ethyl)pyrrolidine-2-carboxamide] displayed an IC50 in assay [1] of 18.8 nM.
